Measurements published in article PMC10054634, “Chemical Constituents of Thesium chinense Turcz and Their In Vitro Antioxidant, Anti-Inflammatory and Cytotoxic Activities” (Molecules, 2023).
“Also recorded” adds a separate entry of the source.

What was measured:
[1] = DPPH radical scavenging assay; details: for antioxidant activity on DPPH radical scavenging (in words): compared with positive control ascorbic acid; for SC50: concentration required for 50% reduction of DPPH radicals, 37 °C, 30 min, 517 nm, nc = SC50 cannot be calculated due to weak or no related activities
Protocol: The 2, 2-diphenyl-1-picrylhydrazyl (Aldrich Chem. Co. Ltd, Shanghai, China) radical scavenging activity assay was performed according to the previously published method with some modification. Test samples were dissolved in MeOH to six different concentrations ranging from 3.125 to 100 μM. Then, 100 μL of 100 μM DPPH in MeOH were mixed with 100 μL of samples at different concentrations in the wells of 96-well plates. The reaction mixtures were incubated in the dark at 37 °C for 30 min and then measured at 517 nm. Ascorbic acid was used as the positive control. The scavenging activity (SC) was estimated as follows: % SC = [1 − (Asample − Ablank)/Acontrol] ×100. Asample was the equivalent mixture of test sample and DPPH solution. Ablank was the equivalent mixture of test sample and MeOH solution. Acontrol was the equivalent mixture of DPPH and MeOH solution. The SC50 values were used to evaluate the antioxidant activities of isolated compounds. The experiments were performed in triplicate, and the data were expressed as the means ± SD of three independent experiments.

A549 = experiment: Cytotoxic assay (CCK-8), A549; assay type: cell-based, human; details: Homo sapiens, A549, 48 h, mean ± SD (n = 3)
Protocol: (§1) Four human cancer cell lines, A549, NCI-H292, SiHa and MKN45, were purchased from the Cell Bank of the Chinese Academy of Sciences (Shanghai, China). […] Cisplatin (Abmole Bioscience, Shanghai, China) was used as positive control.
(§2) A total of 180 μL of cancer cells (5 × 10^3) were plated in each well of 96-well plates and cultured for 24 h, then the supernatant of the culture was discarded and 180 μL complete medium with different concentrations of test samples were added into triplicate wells of each cell line, respectively. Thereafter, A549, NCI-H292, SiHa and MKN45 were incubated for 48 h, respectively. The cell viability was evaluated by Cell Counting Kit-8 (CCK-8, Best Bio., Beijing, China), respectively. The experiments were performed in triplicate, and the data were expressed as the means ± SD of three independent experiments.

NCI-H292 = experiment: Cytotoxic assay (CCK-8), NCI-H292; assay type: cell-based, human; details: Homo sapiens, NCI-H292, 48 h, mean ± SD (n = 3)
Protocol: as §1, §2

SiHa = experiment: Cytotoxic assay (CCK-8), SiHa; assay type: cell-based, human; details: Homo sapiens, 48 h, mean ± SD (n = 3)
Protocol: as §1, §2

[2] = Cytotoxicity in RAW 264.7 cells (CCK-8); details: mouse
Protocol: The cell viability was determined by the CCK-8 assay method. The cytotoxicity was calculated from the plotted results using untreated cells at 100%.

[3] = test system: NO production in LPS-activated RAW 264.7 cells; experiment: Inhibition of NO production in LPS-activated RAW 264.7 cells (Griess reaction); assay type: cell-based; details: Mus musculus, RAW264.7; RAW 264.7, 1 μg/mL LPS, 24 h; mean ± SD (n = 3); read-out: IC50 (NO inhibitory activity)
Protocol: The macrophage RAW 264.7 cells were obtained from the Cell Bank of the Chinese Academy of Sciences (Shanghai, China). A total of 180 μL of RAW 264.7 cells (1 × 10^4) were plated respectively in each well of 96-well plate and cultured for 24 h, then the supernatant of the culture was discarded and 180 μL complete medium with 1 μg/mL LPS and different concentrations of test samples were added into triplicate wells for 24 h. The inhibition effects on LPS-stimulated NO production was evaluated by the Griess reaction assay. The experiments were performed in triplicate, and the data were expressed as the means ± SD of three independent experiments.

MKN45 = experiment: Cytotoxic assay (CCK-8), MKN45; assay type: cell-based, human; details: Homo sapiens, MKN-45, MKN45, 48 h, mean ± SD (n = 3)
Protocol: as §1, §2

[4] = test system: LPS-induced acute lung injury; design: method as in PMID 34417573, PMID 34038447; details: mice; cited from earlier work

Compound | IC50 [3] [µM] | IC50 (RAW 264.7 cells) [µM] | antioxidant activity on DPPH radical scavenging (in words) [1] | SC50 [1] [µM] | IC50 (A549) [µM] | IC50 (NCI-H292) [µM] | IC50 (SiHa) [µM] | IC50 [2] [µM] | IC50 (MKN45) [µM] | anti-inflammatory effects against LPS-induced acute lung injury [4]
COc1cc([C@@H](OC)[C@H](O)CO)ccc1O [Compound 26, alatusol D] | > 200 |  | weak antioxidant activities | 284.0 ± 16.5 | > 200 | > 200 | > 200 | > 200 | > 200 | 
scopolin [Compound 27] |  | > 200 |  |  |  |  |  |  |  | 

Second part, led by results:

IC50 [3] [µM] | IC50 (RAW 264.7 cells) [µM] | Compound | antioxidant activity on DPPH radical scavenging (in words) [1] | SC50 [1] [µM] | IC50 (A549) [µM] | IC50 (NCI-H292) [µM] | IC50 (SiHa) [µM] | IC50 [2] [µM] | IC50 (MKN45) [µM] | anti-inflammatory effects against LPS-induced acute lung injury [4]
> 200 |  | COc1cc(C(O)C(CO)Oc2ccc(C(O)C(O)CO)cc2OC)ccc1O (stereo not drawn) [Compound 18, 1-(4-hydroxy-3-methoxy)-phenyl-2-[4-(1,2,3-trihydroxypropyl)-2-methoxy]-phenoxy-1,3-propan-diol] | weak antioxidant activities; also recorded: moderate activity | 127.9 ± 15.4 | > 200 | > 200 | > 200 | > 200 | > 200 | 
> 200 |  | COc1cc([C@@H]2OC[C@@H](Cc3ccc(O[C@@H]4O[C@H](CO)[C@@H](O)[C@H](O)[C@H]4O)c(OC)c3)[C@H]2CO)ccc1O [Compound 19, lariciresinol-4-O-β-D-glucoside] | significant scavenging activity | 48.8 ± 2.9 | > 200 | > 200 | > 200 | > 200 | > 200 | 
28.6 ± 3 |  | CCOC(=O)/C=C/c1ccc(O)c(OC)c1 [Compound 21, 3-O-ethyl ferulate] |  | 50.8 ± 1.4 | > 200 | > 200 | > 200 | > 200 | > 200 | obvious anti-inflammatory effects
